Source: article PMC7249060, “The Antiproliferative Effects of Flavonoid MAO Inhibitors on Prostate Cancer Cells” (Molecules, 2020)

Tests used:
hMAO-A = target: T1, hMAO-A (Homo sapiens, UniProt P21397); assay: MAO-Glow luminescence screen of KKRs at 100 μM; type: biochemical; conditions: 100 μM screen
T1 construct: purchased Sigma-Aldrich Co. (St. Louis, MO, USA)
T1 sequence (P21397 1-527): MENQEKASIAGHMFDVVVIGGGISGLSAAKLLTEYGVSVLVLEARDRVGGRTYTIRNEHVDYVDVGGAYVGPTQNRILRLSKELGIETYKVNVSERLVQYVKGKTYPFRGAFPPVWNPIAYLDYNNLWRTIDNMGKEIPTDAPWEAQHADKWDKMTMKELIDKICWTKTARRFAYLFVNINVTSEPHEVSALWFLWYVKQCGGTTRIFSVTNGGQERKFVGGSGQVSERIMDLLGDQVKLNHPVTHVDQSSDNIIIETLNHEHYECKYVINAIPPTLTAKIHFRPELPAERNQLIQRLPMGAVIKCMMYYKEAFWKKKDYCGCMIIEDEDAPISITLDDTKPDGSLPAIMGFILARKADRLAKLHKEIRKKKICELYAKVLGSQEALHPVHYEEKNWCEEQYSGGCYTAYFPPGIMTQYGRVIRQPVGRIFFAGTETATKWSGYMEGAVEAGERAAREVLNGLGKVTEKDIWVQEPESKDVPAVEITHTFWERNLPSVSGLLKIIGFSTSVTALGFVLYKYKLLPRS
Experimental: (§1) We optimized our control hMAO-A and hMAO-B isozymes reactions in the incubation condition, at 37 °C for 1 h, by performing a luminescence assay using the MAO-Glow™ kit. Upon arrival, each isozyme was diluted with 10 mM HEPES in cold HBSS of pH 7.4. Afterward, the diluted isozymes were kept at −80 °C until use. Enzyme concentration optimization was accomplished by testing ten 2X serially diluted hMAO-A and hMAO-B concentrations for a final range of 7.00–0.01 U/mL each. The tested isozymes were incubated with LDS of 40 and 4 μM for isozymes A and B, respectively (recommended by Promega protocol), and a maximum of used DMSO of 1% final concentration. Different isozyme concentrations reactions at their initial velocities were monitored. Consequently, their required concentrations were defined to be 0.44 U/mL each. Additionally, ten different LDS concentrations, ranging from 0.3–150 μM, were monitored for optimizing and validating the linearity of the initial reaction for the hMAO-A mode of action. Subsequently, we chose a saturated substrate of 75 μM as a required concentration for the hMAO-A enzyme kinetic reactions.
(§2) The inhibitory effects of the synthesized KKRs of hMAO-A and B were tested by measuring the decrease in arbitrary light units (ALU) signal produced by the optimized isozymes using the MAO-Glow™ Assay at 37 °C. In this assay, DMSO stock for each KKR compound was diluted with a reaction buffer of pH 7.4 to make a 4X working solution for a maximum final concentration of 100 μM and ≤1% DMSO. The experiments were run in the absence and presence of 4X the miscellaneous standards of MAO-BIs (DEP, PARG, and SAF) and MAO-AIs (PIRL and CLORG), with similar concentrations. In white opaque 96-well microplates, 12.5 μL of each compound was plated at RT and was followed by 25 μL of 2X cold hMAO-A or hMAO-B, for a final concentration of 0.44 U/mL. A related buffer substituted each isozyme to make the blank wells and substituted each compound to make the negative control wells. Following this, we added 12.5 μL of 4X LDS to make a final substrate concentration of 40- and 4-μM for hMAO-A and hMAO-B, respectively. All screen plates were incubated at 37 °C for 60 min. The plates of 50 μL/well were then taken out from the incubator, and their reactions were stopped by an equal volume of 50 μL of reporter luciferin detection reagent (RLDR). After 30 min, the luminescence signals for all plates were read on a Synergy HTX Multi-reader from Bio-Tek (Winooski, VT, USA).

hMAO-B = target: T2, hMAO-B (Homo sapiens, UniProt P27338); assay: MAO-Glow luminescence screen of KKRs at 100 μM; type: biochemical; conditions: 100 μM screen
T2 construct: purchased Sigma-Aldrich Co. (St. Louis, MO, USA)
T2 sequence (P27338 1-520): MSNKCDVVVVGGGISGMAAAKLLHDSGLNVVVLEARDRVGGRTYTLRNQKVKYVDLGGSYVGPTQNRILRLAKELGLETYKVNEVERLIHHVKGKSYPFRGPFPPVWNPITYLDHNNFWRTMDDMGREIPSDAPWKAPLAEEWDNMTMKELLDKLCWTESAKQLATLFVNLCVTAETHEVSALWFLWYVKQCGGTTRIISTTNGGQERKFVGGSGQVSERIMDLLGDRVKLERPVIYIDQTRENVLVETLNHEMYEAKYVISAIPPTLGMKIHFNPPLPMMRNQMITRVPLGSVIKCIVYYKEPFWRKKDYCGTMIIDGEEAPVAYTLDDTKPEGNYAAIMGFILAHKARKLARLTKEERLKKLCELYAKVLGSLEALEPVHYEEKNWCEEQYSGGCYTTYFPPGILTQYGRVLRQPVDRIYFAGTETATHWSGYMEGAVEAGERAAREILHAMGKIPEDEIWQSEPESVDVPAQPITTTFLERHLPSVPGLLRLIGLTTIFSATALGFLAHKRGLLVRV
Experimental: as §1, §2

LNCaP cells [1] = assay: Viability screen assay, resazurin, 24 h; type: cell-based, human; conditions: 50 μM, 90% viability as margin of cytotoxicity
Experimental: We examined the cytotoxic effects of all 20 synthesized KKRs on the three human PCa cell lines LNCaP, DU145, and PC3, after a 24 h exposure period. Non-toxic TAX was used for comparison. Briefly, cultured cells were seeded in black transparent bottom 96-well microplates at 50,000 cells/175-µL/well in experimental media (RPMI1640 for LNCaP, EMEM for DU145, and DMEM/F12K for PC3), supplied with 5% FBS and 1% P/S. Wells of media without cells were considered blanks and negative controls. The plates were incubated overnight at 37 °C in 5% CO2 to allow cell attachment. For each compound, a working solution of 8X KKR in sterile […] HEPES in HBSS pH buffer of 7.4 was prepared for a final concentration of 50 μM each. The three attached cell types were treated immediately with the related buffer being added to the control wells. A sterile fluorescence-based solution of the resazurin reagent of 0.5 mg/mL in HBSS was prepared. After 24 h, the cells were exposed to 15% v/v of the sterile resazurin reagent, and the plates were re-incubated for 4.5 h to allow redox reaction. All plates were read under 530/590-nm excitation/emission wavelengths using Bio-Tek Synergy HTX Multi-reader as a microplate fluorescence reader.

DU145 cells [2] = assay: Antiproliferation screen assay, resazurin, 72 h; type: cell-based, human; conditions: 50 μM
Experimental: (§3) In this screen, we examined the growth inhibitory effects of all synthesized KKRs on the three human PCa cell lines LNCaP, DU145, and PC3. The antiproliferative clinical drug TAX of 0.25 μM was used as a positive control. Additionally, different standards of MAO-Is and FLUT were tested for their effect on the LNCaP cells. Briefly, the procedures and materials used were the same as for the viability assay except for the following—cultured cells were seeded at 10,000 cells/175-µL/well related experimental media, and the resazurin solution was added after 72 h of incubation with the compounds of 50 μM each.

LNCaP cells [3] = assay: Antiproliferation screen assay, resazurin, 72 h; type: cell-based, human; conditions: 50 μM
Experimental: as §3

PC3 cells [4] = assay: Antiproliferation screen assay, resazurin, 72 h; type: cell-based, human; conditions: 50 μM
Experimental: as §3

DU145 cells [5] = assay: Antiproliferation dose-response assay for 72 h; type: cell-based; conditions: Homo sapiens, DU-145; DU145, 72 h, mean ± SEM of two experiments; read-out: antiproliferative IC50
Experimental: (§4) For the top effective KKRs, along with TAX, their potency to reduce the affected PCa cell line growth in a dose-dependent manner was determined using the resazurin fluorescence assay. We followed the same protocols and materials used for the antiproliferation screen assays (Section 4.3.2), with the following modifications. The maximum final KKR concentration used was 40 μM. The concentration of 8X of each KKR working solution in 1% HEPES 7.4 was serially diluted in a 3:1 ratio, compound to buffer, respectively. Each data set was collected from ten data points of 3.7–40 μM range. The control had the KKR substituted with buffer. The related IC50 averages were analyzed for the compounds that affected the cell lines the most.

LNCaP cells [6] = assay: Antiproliferation dose-response assay for 72 h; type: cell-based; conditions: Homo sapiens, mean ± SEM of two experiments, read-out: antiproliferative IC50
Experimental: as §4

PC3 cells [7] = assay: Antiproliferation dose-response assay for 72 h; type: cell-based; conditions: Homo sapiens, PC-3; PC3, 72 h, mean ± SEM of two experiments; read-out: antiproliferative IC50
Experimental: as §4

MAO inhibitory property in MAO screen (hMAO-A): did not have MAO inhibitory properties
MAO inhibitory property in MAO screen (hMAO-B): did not have MAO inhibitory properties
IC50 (DU145 cells [5]): 9 ± 0.5 µM
IC50 (LNCaP cells [6]): 21 ± 1 µM
IC50 (PC3 cells [7]): 34 ± 1 µM
Structure (SMILES): COc1cc(O)c(C(=O)/C=C/c2cc(OC)c(OC)c(OC)c2)c(OC)c1 [KKR17, (E)-1-(2-hydroxy-4,6-dimethoxyphenyl)-3-(3,4,5-trimethoxyphenyl)prop-2-en-1-one]
cytotoxicity / cell viability (LNCaP cells [1]): affected the LNCaP cells
antiproliferative effect in screen (DU145 cells [2]): top effective
antiproliferative effect in screen (LNCaP cells [3]): top five KKRs that kept standing out with antiproliferative effects
antiproliferative effect in screen (PC3 cells [4]): effective against all investigated cell lines, including the metastatic PC3
